{"source": "paper PMC10326263", "about": "(Acta Pharmaceutica Sinica. B, 2023)", "key": {"[1]": {"test_system": "HIV-1 mutant strain K103N", "assay": "microbe, parasite or virus in culture", "type": "cell-based", "settings": "Human immunodeficiency virus 1, MT4, read-out: EC50 K103N"}, "[2]": {"test_system": "HIV-1 mutant strain F227L + V106A", "assay": "microbe, parasite or virus in culture", "type": "cell-based", "settings": "Human immunodeficiency virus 1, MT4, read-out: EC50 F227L + V106A"}, "[3]": {"test_system": "HIV-1 mutant strain E138K", "assay": "microbe, parasite or virus in culture", "type": "cell-based", "settings": "Human immunodeficiency virus 1, MT4, read-out: EC50 E138K"}, "[4]": {"test_system": "HIV-1 mutant strain L100I", "assay": "microbe, parasite or virus in culture", "type": "cell-based", "settings": "Human immunodeficiency virus 1, MT4, read-out: EC50 L100I"}, "[5]": {"test_system": "HIV-1 mutant strain Y181C", "assay": "microbe, parasite or virus in culture", "type": "cell-based", "settings": "Human immunodeficiency virus 1, MT4, read-out: EC50 Y181C"}, "[6]": {"assay": "In vivo pharmacokinetics study in rats", "settings": "male, Sprague-Dawley, rat, plasma"}, "[7]": {"test_system": "SPF Kunming mice", "assay": "Subacute toxicity experiment in mice", "type": "in vivo"}, "[8]": {"test_system": "HIV-1 mutant strain Y188L", "assay": "microbe, parasite or virus in culture", "type": "cell-based", "settings": "Human immunodeficiency virus 1, MT4, read-out: EC50 Y188L"}, "[9]": {"test_system": "HIV-1 WT strain (IIIB)", "assay": "Anti-HIV activity against WT HIV-1"}, "[10]": {"test_system": "SPF Kunming mice", "assay": "Acute toxicity experiment in mice", "type": "in vivo", "settings": "7 days"}, "[11]": {"assay": "Cytotoxicity in mock-infected MT-4 cells, MTT method", "type": "cell-based", "settings": "human, mock-infected MT-4 cells, CC50, mock-infected MT-4 cells"}, "[12]": {"test_system": "MT-4 cells", "assay": "Cytotoxicity in mock-infected MT-4 cells, MTT method", "type": "cell-based"}, "[13]": {"test_system": "HIV-1 mutant strain RES056 (K103N + Y181C)", "assay": "microbe, parasite or virus in culture", "type": "cell-based", "settings": "Human immunodeficiency virus 1, MT4, read-out: EC50 RES056"}}, "note": "“Also recorded” adds a separate entry of the source."}
{"smiles": "Cc1cc(C)cc(S(=O)(=O)c2c(C(=O)NCCCCNS(=O)(=O)c3cccnc3)[nH]c3ccc(Cl)cc23)c1", "note": "[R10L4, 5-Chloro-3-((3,5-dimethylphenyl)sulfonyl)-N-(4-(pyridine-3-sulfonamido)butyl)-1H-indole-2-carboxamide]", "values": [{"measurement": "EC50", "setting": "[1]", "value": "68 ± 12", "unit": "nM"}, {"measurement": "EC50", "setting": "[2]", "value": "87 ± 35", "unit": "nM"}, {"measurement": "EC50", "setting": "[3]", "value": "17 ± 7", "unit": "nM"}, {"measurement": "EC50", "setting": "[4]", "value": "17 ± 2", "unit": "nM"}, {"measurement": "EC50", "setting": "[5]", "value": "45 ± 10", "unit": "nM"}, {"measurement": "AUC(0-inf)", "setting": "[6]; iv, 2 mg/kg", "value": "481 ± 63.3", "unit": "ng·h/mL"}, {"measurement": "AUC(0-t)", "setting": "[6]; iv, 2 mg/kg", "value": "472 ± 63.4", "unit": "ng·h/mL"}, {"measurement": "MRT inf", "setting": "[6]; iv, 2 mg/kg", "value": "1.45 ± 0.09", "unit": "h"}, {"measurement": "Tmax", "setting": "[6]; iv, 2 mg/kg", "value": 4.98, "unit": "min"}, {"measurement": "clearance", "setting": "[6]; iv, 2 mg/kg", "value": 70.2, "unit": "mL/min/kg"}, {"measurement": "half-life", "setting": "[6]; iv, 2 mg/kg", "value": "96.6 ± 2.4", "unit": "min"}, {"measurement": "Cmax", "setting": "[6]; iv, 2 mg/kg, i.v. 2 mg/kg", "value": "657 ± 99.2", "unit": "ng/mL"}, {"measurement": "bioavailability", "setting": "[6]; oral, 10 mg/kg", "value": 8.5, "unit": "%"}, {"measurement": "AUC(0-inf)", "setting": "[6]; po, 10 mg/kg", "value": "203 ± 38.4", "unit": "ng·h/mL"}, {"measurement": "AUC(0-t)", "setting": "[6]; po, 10 mg/kg", "value": "199 ± 38.7", "unit": "ng·h/mL"}, {"measurement": "MRT inf", "setting": "[6]; po, 10 mg/kg", "value": "2.27 ± 0.05", "unit": "h"}, {"measurement": "Tmax", "setting": "[6]; po, 10 mg/kg", "value": "49.8 ± 9", "unit": "min"}, {"measurement": "half-life", "setting": "[6]; po, 10 mg/kg", "value": "107 ± 15", "unit": "min"}, {"measurement": "Cmax", "setting": "[6]; po, 10 mg/kg, p.o. 10 mg/kg", "value": "≤ 80", "unit": "ng/mL"}, {"measurement": "mortality or behavior changes, subacute toxicity", "setting": "[7]; 50 mg/kg p.o., 12 days", "value": "no remarkable in vivo toxic effects; also recorded: did not lead to any mortality or observable behavior changes"}, {"measurement": "body weight, subacute toxicity", "setting": "[7]; 50 mg/kg, 12 days, compared with blank group", "value": "only insignificant body weight loss was seen"}, {"measurement": "pathology of hematoxylin and eosin-stained slices from vital organs", "setting": "[7]; end of subacute toxicity test, heart, liver, spleen, lung, kidney", "value": "no marked pathological abnormalities"}, {"measurement": "EC50", "setting": "[8]", "value": "540 ± 87", "unit": "nM"}, {"measurement": "selectivity index, times higher than that of IAS-0", "setting": "[9]; WT HIV-1", "value": "~14", "unit": "times"}, {"measurement": "SI IIIB (CC50/EC50 ratio)", "setting": "[9]; WT HIV-1 IIIB", "value": "30,930"}, {"measurement": "mortality or behavior changes, acute toxicity", "setting": "[10]; 800 mg/kg intragastric", "value": "no remarkable in vivo toxic effects; also recorded: did not lead to any mortality or observable behavior changes"}, {"measurement": "body weight, acute toxicity", "setting": "[10]; 800 mg/kg, compared with blank group", "value": "only insignificant body weight loss was seen"}, {"measurement": "CC50 at 5 days", "setting": "[11]", "value": 216, "unit": "µM"}, {"measurement": "fold decrease in cytotoxicity compared to IAS-0", "setting": "[12]; CC50, MT-4 cells", "value": "~40", "unit": "fold"}, {"measurement": "CC50", "setting": "[12]; mock-infected MT-4 cells", "value": "216.5 ± 0.52", "unit": "µM"}, {"measurement": "EC50", "setting": "[13]", "value": 5.26, "unit": "µM"}]}
